Results taken from ChEMBL document CHEMBL1156829 (Proc Natl Acad Sci U S A, 2008).

How the values were obtained:
[1] = tested on: Plasmodium falciparum; test: NOVARTIS: Inhibition of Plasmodium falciparum 3D7 (drug-susceptible) proliferation in erythrocyte-based infection assay; assay type: functional, organism-based; conditions: Plasmodium falciparum, 3D7
[2] = tested on: Plasmodium falciparum; test: NOVARTIS: Inhibition of Plasmodium falciparum W2 (drug-resistant) proliferation in erythrocyte-based infection assay; assay type: functional, organism-based; conditions: Plasmodium falciparum, W2; read-out: EC50
[3] = NOVARTIS: Cytotoxicity against human hepatocellular carcinoma cell line (Huh7); assay type: toxicity, cell-based, Huh-7; conditions: Huh7 cells (hepatocellular carcinoma cell line)

Row | Compound | EC50 [1] [nM] | EC50 [2] [nM] | CC50 [3] [nM]
1 | CCc1ccc2c(c1)C1(NN=C(c3ccc(C)cc3)S1)C(=O)N2 (centres undefined) | 1490 | 2100 | 23800
2 | Oc1ccc(Nc2ccnc3cc(Cl)ccc23)cc1 | 3370 | 3520 | 39700
3 | Cc1ccc(C(=O)N(CCc2ccccc2)C(C)c2nc3ccccc3c(=O)n2-c2cccc(Cl)c2C)cc1[N+](=O)[O-] (centres undefined) | > 1620 | 887 | > 10000
4 | CN(C)C(=O)O[n+]1ccc(N(C)C)cc1 | > 990 | > 897 | > 10000
5 | CCN(CC)C(CN1CCN(CC(C)C(=O)c2ccc(O)cc2)CC1)c1ccc(F)cc1 (centres undefined) | 1950 | 4310 | 49000
6 | Clc1cc(N2CCCCC2)c(Cl)nn1 | > 1250 | > 892 | > 10000
7 | Oc1ccccc1Nc1nc(NCc2ccccc2)c2ccccc2n1 | 277 | 1120 | 12500
8 | O=c1[nH]c(N2CCCC2)nc2c1CCN(Cc1coc3ccccc3c1=O)C2 | > 1250 | > 896 | > 10000
9 | Cc1nc2ccccc2c(=O)n1-c1ccc([N+](=O)[O-])cc1 | 765 | 896 | > 10000
10 | CCCCCN(C(=O)c1ccc(C)cc1)C(C)c1nc2ccccc2c(=O)n1-c1ccccc1CC (centres undefined) | > 1620 | 895 | > 10000
11 | COc1ccc(OC)c(C(=O)c2oc3ccccc3c2NC(=O)CCl)c1 | 10200 | 1380 | 15500
12 | COc1ccc(/C=C/C(=O)Nc2ccc(S(=O)(=O)N3CCOCC3)cc2)cc1 | > 1620 | 891 | > 10000
13 | O=C(N/C(=C/C=C/c1ccccc1)C(=O)N1CCCCC1)c1ccc([N+](=O)[O-])cc1 | > 719 | > 889 | > 10000
14 | O=C(c1cccs1)N(Cc1cccs1)c1ccc([N+](=O)[O-])cc1 | 677 | 888 | > 10000
15 | Cn1c(C(C#N)C(=S)NC2CCCCC2)nc2cccnc21 (centres undefined) | > 1250 | > 894 | > 10000
16 | COc1ccc(CNC2CCN(CCN3CCCCC3)C(c3ccc(OCc4ccccc4)cc3)C2)cc1OC (centres undefined) | 662 | 447 | 5060
17 | Cc1ccc(NC(=O)c2sc3nc4c(c(-c5ccc(C)cc5)c3c2N)CCC4)cc1 | 2790 | 8940 | > 100000
18 | Oc1c(C(Nc2ccccn2)c2ccncc2)ccc2cccnc12 (centres undefined) | 830 | 892 | > 10000
19 | Fc1ccc(CNc2ccnc3cc(Cl)ccc23)cc1 | 808 | > 881 | > 10000
20 | CCOc1nc2c(c(=O)n(C)c(=O)n2C)n1Cc1cccc(Br)c1 | > 1620 | > 885 | > 10000
21 | C=CCc1cc([N+](=O)[O-])cc2c1OC1(C=C2)N(c2ccccc2)c2ccccc2C1(C)C (centres undefined) | 396 | 885 | > 10000
22 | COc1ccc(-c2nnc(NC(=O)CCN(CCc3ccc(OC)c(OC)c3)C(=O)c3cccc4ccccc34)s2)cc1 | 934 | > 1200 | > 13600
23 | O=C1c2ccc(-c3nc(-c4ccccc4)[nH]c3-c3ccccc3)cc2-c2cc(-c3[nH]c(-c4ccccc4)nc3-c3ccccc3)ccc21 | 9190 | 8930 | > 100000
24 | COCCN(CC(O)CNC(=O)c1ccc2ccccc2n1)S(=O)(=O)c1c(C)noc1C (centres undefined) | > 90 | > 895 | > 10000
25 | c1ccc(N=Nc2nnc(Nc3ccccc3)s2)cc1 | 957 | 884 | > 10000
26 | CCC(NC1CCCCC1)c1nc2ccccc2c(=O)n1C (centres undefined) | 1110 | 888 | > 10000
27 | CCOC(=O)CSc1nc2c(sc(=S)n2-c2ccc(Cl)c(C)c2)c(=O)n1-c1ccccc1OC | > 1250 | > 884 | > 10000
28 | CCN(CC)c1nc(S)nc(NC(C)(C)C)n1 | > 12500 | > 8810 | > 100000
